These are literature values, as cited in patent publication US8952066B2, “Pharmaceutical/cosmetic, E.G., anti-acne compositions comprising at least one naphthoic acid compound, benzoyl peroxide and at least one film-forming agent” (Galderma Research & Development, priority 2007, dated 2015).

Molecules are shown by their SMILES. Read-outs that look alike come from different tables or passages of the source.

For data set [1] the following is noted: 40° C.
For data set [2] the following is noted: in presence of the benzoyl peroxide-based formulation.

For `O=C(OOC(=O)c1ccccc1)c1ccccc1` [benzoyl peroxide], the results for the Degradation time in data set [1] (in PEG 400 (0.5 mg/g)), in data set [1] (in ethanol) and in data set [1] (in propylene glycol) were 1.4 days, 29 days and 53 days, respectively.

`COc1ccc(-c2ccc3cc(C(=O)O)ccc3c2)cc1C12CC3CC(CC(C3)C1)C2` [adapalene, 6-[3-(1-adamantyl)-4-methoxyphenyl]-2-naphthoic acid]: the “Degradation of the retinoid (in words)” value in data set [2] (for 24 hours) is “no degradation”.

On to `CC1=C(/C=C/C(C)=C/C=C/C(C)=C/C(=O)O)C(C)(C)CCC1` [tretinoin], for which the “Degradation of the retinoid” value was 50% in data set [2] (in 2 hours) and 95% in data set [2] (in 24 hours).
